# In patent US7038074B2, “Arginine mimetics as factor Xa inhibitors” (Wilex AG, priority 2000, dated 2006):
# Entries after “also recorded” stand apart in the source; their conditions may differ. Where two headings read alike, the source gives them in different places.
# What was measured:
# factor Xa [1] = assay: Determining the inhibitor constants (Ki, Dixon), factor Xa; type: biochemical, bovine or human
# Experimental: (§1) The measurements were carried out at 25° C. on a microplate reader (MR 5000, Dynatech, Denkendorf, Germany). The test medium consisted of 200 μl of Tris buffer (0.05 M; 0.154 M NaCl, 5% ethanol, pH 8.0), 25 μl of aqueous substrate solution and 50 μl of enzyme solution. Two concentrations of the substrate and five concentrations of the inhibitor were used. Three minutes after adding the enzyme, 25 μl of acetic acid (50%) were added in order to quench the reaction and the optical density was measured at 405 nm. The Ki values were calculated in accordance with Dixon (M. Dixon (1953), Biochem. J. 55, 170–171) using a linear regression. The Ki values given in FIGS. 2 and 3 are means of at least three determinations.
# (§2) The following enzymes and the corresponding substrates were used at the given final concentrations: bovine thrombin, prepared in accordance with Walsmann (P. Walsmann (1968), Pharmazie 23, 401–402) (2 262 U/mg, final concentration 0.45 U/ml), substrate MeSO2-D-hexahydrotyrosyl-Gly-Arg-pNA (final concentration 0.18 and 0.09 mM); bovine factor Xa (5 U/vial, 0.11 U/ml; Diagnostic Reagents Ltd., Thame, UK), substrate MeSO2-D-Nle-Gly-Arg-pNA (0.36 and 0.18 mM); human factor Xa (0.18 μg/ml; Kordia Lab. Supplies, Leiden, Netherlands), substrate as for bovine factor Xa human plasmin (0.67 CTA U/mg, 0.06 CTA U/ml; Behringwerke AG, Marburg, Germany), substrate Tos-Gly-Pro-Lys-pNA (0.18 and 0.09 mM); human uPA (500 000 U/vial, final concentration 150 U/ml; Ribosepharm GmbH Haan, Germany), substrate Bz-βAla-Gly-Arg-pNA (0.18 and 0.09 mM); bovine pancreas trypsin (42 U/mg, 0.0038 U/ml; Serva, Heidelberg, Germany), substrate MeSO2-D-hexahydrotyrosyl-Gly-Arg-pNA (0.18 and 0.06 mM).
# factor Xa [2] = details: prior art, Gabriel et al. 1998; cited from earlier work
# factor Xa [3] = target: T1, factor Xa (UniProt P00743); assay: Determining the inhibitor constants (Ki, Dixon), factor Xa; type: biochemical, bovine or human; details: for Ki: 25° C., pH 8.0, species of factor Xa not given
# T1 construct: Ki factor Xa; other: 25° C., pH 8.0; factor Xa activity of the D-enantiomer relative to the L-enantiomer 27; other: compound 28 versus compound 27; other: relative to compound 31
# Experimental: as §1, §2
# human uPA = target: T2, human uPA (Homo sapiens, UniProt P00749); assay: Determining the inhibitor constants, uPA; type: biochemical
# T2 construct: purchased Ribosepharm GmbH Haan, Germany
# Experimental: as §1, §2
# bovine pancreas trypsin = target: T3, bovine pancreas trypsin (Bos taurus, UniProt P00760); assay: Determining the inhibitor constants, trypsin; type: biochemical
# T3 construct: purchased Serva, Heidelberg, Germany; host or cells: bovine pancreas
# T3 sequence (P00760 24-246): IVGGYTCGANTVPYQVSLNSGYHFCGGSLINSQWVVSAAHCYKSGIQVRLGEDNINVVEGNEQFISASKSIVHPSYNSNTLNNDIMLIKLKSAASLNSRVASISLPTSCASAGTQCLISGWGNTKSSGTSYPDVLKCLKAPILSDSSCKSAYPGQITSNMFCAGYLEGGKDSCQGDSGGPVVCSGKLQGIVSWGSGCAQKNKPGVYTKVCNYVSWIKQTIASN
# Experimental: as §1, §2
# bovine thrombin = target: T4, bovine thrombin (Bos taurus, UniProt P00735); assay: Determining the inhibitor constants, thrombin; type: biochemical
# T4 construct: converts the zymogen prothrombin into its active form thrombin; made in house
# Experimental: as §1, with “determinations. […]” for “determinations.”
# [4] = Chemical and enzymic stability, stability towards acids; type: physicochemical; details: for example stomach acids
SMILES,inhibitory effect on factor Xa (in words) (factor Xa [1]),inhibition of uPA (in words) (human uPA),inhibition of / affinity for trypsin (in words) (bovine pancreas trypsin),also measured
"COC(=O)C(Cc1cccc(C(=N)N)c1)NC(=O)OC12CC3CC(CC(C3)C1)C2.Cl (racemic) [Compound 11, N-1-adamantyloxycarbonyl-D,L-3-amidinophenylalanine methyl ester hydrochloride]",,,,"selectivity for factor Xa vis-à-vis uPA, thrombin and trypsin (factor Xa [1]): remarkable selectivity; inhibitory effect on factor Xa (in words) (factor Xa [1]; hydrochloride): significantly increased inhibitory effect; also recorded: submicromolar inhibition"
"Cl.N=C(N)c1cccc(CC(NC(=O)OC23CC4CC(CC(C4)C2)C3)C(=O)N2CCCCC2)c1 [Compound 17, N-1-adamantyloxycarbonyl-D,L-3-amidinophenylalanine piperidide hydrochloride]",does not show any important differences,,,
"CCOC(=O)C(Cc1ccc(C(=N)N)cc1)NC(=O)CNS(=O)(=O)c1ccc(C(=N)N)cc1 (racemic) [Compound 2, N^α-4-amidinobenzenesulfonylglycyl-D,L-4-amidinophenylalanine ethyl ester]",,,,Ki (factor Xa [2]): 0.5 µM
"COC(=O)[C@@H](Cc1cccc(C(=N)N)c1)NC(=O)OC12CC3CC(CC(C3)C1)C2.Cl [Compound 28, N-1-adamantyloxycarbonyl-D-3-amidinophenylalanine methyl ester hydrochloride]",,only capable of recognizing the L-enantiomer,almost identical affinity,Ki (factor Xa [3]): 0.39 µM; factor Xa activity of the D-enantiomer relative to the L-enantiomer 27 (factor Xa [3]; compound 28 versus compound 27): about 10 times
"Cl.N=C(N)c1cccc(CC(NC(=O)OC23CC4CC(CC(C4)C2)C3)C(=O)O)c1 (racemic) [Compound 15, N-1-adamantyloxylcarbonyl-D,L-3-amidinophenylalanine hydrochloride]",does not show any important differences,,,
"COC(=O)[C@H](Cc1cccc(C(=N)N)c1)NC(=O)OC12CC3CC(CC(C3)C1)C2.Cl [Compound 27, N-1-adamantyloxycarbonyl-L-3-amidinophenylalanine methyl ester hydrochloride]",,only capable of recognizing the L-enantiomer,almost identical affinity,
"N=C(N)c1cccc(C[C@@H](NC(=O)NC23CC4CC(CC(C4)C2)C3)C(=O)NCCc2ccccc2)c1 [Compound 32, N-(1-adamantylaminocarbonyl)-D-3-amidinophenylalanine-(2-phenyl)-1-ethylamide]",even more powerful inhibitory effect,,,factor by which FXa is inhibited better than by compound 31 (factor Xa [3]; relative to compound 31): 3
"COC(=O)C(Cc1ccc(NC(=N)N)cc1)NC(=O)OC12CC3CC(CC(C3)C1)C2.Cl (racemic) [Compound 26, N-1-adamantyloxycarbonyl-D,L-4-guanidinophenylalanine methyl ester hydrochloride]",dramatic loss in inhibitory activity,dramatic loss in inhibitory activity,dramatic loss in inhibitory activity,inhibition of thrombin (in words) (bovine thrombin): dramatic loss in inhibitory activity
"Cl.N=C(N)c1cccc(C[C@@H](NC(=O)OC23CC4CC(CC(C4)C2)C3)C(=O)NCCc2ccccc2)c1 [Compound 31, N-1-adamantyloxycarbonyl-D-3-amidinophenylalanine-(2-phenyl)-1-ethylamine hydrochloride]",,,,"Ki (factor Xa [3]): 0.074 µM; inhibitory effect on factor Xa (in words) (factor Xa [1]; hydrochloride): strongest inhibitor; inhibitory effect on factor Xa (in words) (factor Xa [1]; listed as N-1-adamantyloxycarbonyl-D-3-amidinophenylalanine-(2-phenyl)-1-ethylamide, hydrochloride): very powerful inhibitory effect"
"COC(=O)C(Cc1cccc(C(=N)N)c1)NC(=O)NC12CC3CC(CC(C3)C1)C2.Cl (racemic) [Compound 12, N-1-adamantylaminocarbonyl-D,L-3-amidinophenylalanine methyl ester hydrochloride]",,dramatic effects on the inhibition of uPA,,stability (acids; chemical and enzymic) [4]: desirable stability towards acids
